Measured values published in patent US6737383B1, “Herbicidal oxadiazolidines” (priority 1999, dated 2004).

Tests used:
rape = test: Test B pre/postemergence rape; format: in vivo, Brassica napus
Summary of the method: (§1)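 Herbicidal effect was estimated by eye on a ten-point control scale after plants spent twelve to sixteen days in a greenhouse following soil or foliar treatment. Foliar sprays targeted plants at one to four leaves; all doses were formulated in a non-phytotoxic solvent with surfactant.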

corn = test: Test B pre/postemergence corn; format: in vivo, Zea mays
Summary of the method: as §1

pigweed = test: Test B pre/postemergence pigweed; format: in vivo, Amaranthus retroflexus
Summary of the method: as §1

wheat = test: Test B pre/postemergence wheat; format: in vivo, Triticum aestivum
Summary of the method: as §1

smallflower flatsedge = test: Test B flood test smallflower flatsedge; format: in vivo, Cyperus difformis
Summary of the method: (§2)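 Read-out is a visual response score from 0 (no effect) to 10 (complete control), assigned by comparison with untreated controls. Treatment was applied at the 2-leaf stage, and plants stayed in the greenhouse for twelve to sixteen days before scoring.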

wild oat = test: Test B pre/postemergence wild oat; format: in vivo, Avena fatua
Summary of the method: as §1

duck salad = test: Test B flood test duck salad; format: in vivo, Heteranthera limosa
Summary of the method: as §2

morningglory = test: Test B pre/postemergence morningglory; format: in vivo, Ipomoea hederacea
Summary of the method: as §1

purple nutsedge = test: Test B pre/postemergence purple nutsedge; format: in vivo, Cyperus rotundus
Summary of the method: as §1

soybean = test: Test B pre/postemergence soybean; format: in vivo, Glycine max
Summary of the method: as §1

giant foxtail = test: Test B pre/postemergence giant foxtail; format: in vivo, Setaria faberii
Summary of the method: as §1

velvetleaf = test: Test B pre/postemergence velvetleaf; format: in vivo, Abutilon theophrasti
Summary of the method: as §1

bedstraw = test: Test B pre/postemergence bedstraw; format: in vivo, Galium aparine
Summary of the method: as §1

rice = test: Test B flood test rice; format: in vivo, Oryza sativa
Summary of the method: as §2

crabgrass = test: Test B pre/postemergence crabgrass; format: in vivo, Digitaria sanguinalis
Summary of the method: as §1

cocklebur = test: Test B pre/postemergence cocklebur; format: in vivo, Xanthium strumarium
Summary of the method: as §1

[1] = Preemergence, Rate 62 g/ha, scale of 0 to 10 where 0 is no effect and 10 is complete control
[2] = Preemergence, Rate 250 g/ha, scale of 0 to 10 where 0 is no effect and 10 is complete control
[3] = Preemergence, Rate 500 g/ha, scale of 0 to 10 where 0 is no effect and 10 is complete control
[4] = Rate 62 g/ha, Postemergence, scale 0 to 10 (0 no effect, 10 complete control)
[5] = Rate 125 g/ha, Postemergence, scale of 0 to 10 where 0 is no effect and 10 is complete control
[6] = Rate 250 g/ha, Postemergence, scale of 0 to 10 where 0 is no effect and 10 is complete control
[7] = Rate 500 g/ha, Postemergence, scale 0 to 10, 0 no effect, 10 complete control
[8] = Rate 62 g/ha, headed Pre-emergence (flood test species), scale 0 to 10 (0 no effect, 10 complete control)
[9] = Rate 125 g/ha, Pre-emergence, flood test species, scale 0 to 10 where 0 is no effect and 10 is complete control
[10] = Rate 250 g/ha, Pre-emergence, flood-test species, scale 0 to 10, 0 is no effect, 10 is complete control
[11] = Rate 500 g/ha, Pre-emergence, flood test species, scale 0 to 10 (0 no effect, 10 complete control)

CCc1cccc(CC)c1-n1c(=O)on(C(=O)N(c2ccc(F)cc2)C(C)C)c1=O [Compound 304]
Rape plant response rating (rape; [1]): 0
Rape plant response rating (0 to 10 scale) (rape; Preemergence, Rate 125 g/ha): 0
Rape plant response rating (rape; [2]): 0
Rape plant response rating (rape; [3]): 0
Rape plant response rating (rape; [4]): 0
Rape plant response rating (rape; [5]): 0
Plant response rating, Rape (rape; [6]): 0
Corn plant response rating (corn; [1]): 0
Corn plant response rating (0 to 10 scale) (corn; Preemergence, Rate 125 g/ha): 0
Corn plant response rating (corn; [2]): 0
Corn plant response rating (corn; [3]): 0
Corn plant response rating (corn; [4]): 0
Corn plant response rating (corn; [5]): 0
Plant response rating, Corn (corn; [6]): 0
Corn plant response rating (corn; [7]): 0
Redroot pigweed plant response rating (pigweed; [1]): 0
Redroot pigweed plant response rating (0 to 10 scale) (pigweed; Preemergence, Rate 125 g/ha): 0
Redroot pigweed plant response rating (pigweed; [2]): 0
Redroot pigweed plant response rating (pigweed; [3]): 0
Redroot pigweed plant response rating (pigweed; [4]): 3
Redroot pigweed plant response rating (pigweed; [5]): 3
Plant response rating, Redroot pigweed (pigweed; [6]): 5
Wheat plant response rating (wheat; [1]): 0
Wheat plant response rating (0 to 10 scale) (wheat; Preemergence, Rate 125 g/ha): 0
Wheat plant response rating (wheat; [2]): 0
Wheat plant response rating (wheat; [3]): 0
Wheat plant response rating (wheat; [4]): 0
Wheat plant response rating (wheat; [5]): 0
Plant response rating, Wheat (wheat; [6]): 0
S. Flatsedge plant response rating (smallflower flatsedge; [8]): 0
S. Flatsedge plant response rating (smallflower flatsedge; [9]): 0
S. Flatsedge plant response rating (smallflower flatsedge; [10]): 0
S. Flatsedge plant response rating (smallflower flatsedge; [11]): 0
Wild oats plant response rating (wild oat; [1]): 0
Wild oats plant response rating (0 to 10 scale) (wild oat; Preemergence, Rate 125 g/ha): 0
Wild oats plant response rating (wild oat; [2]): 0
Wild oats plant response rating (wild oat; [3]): 0
Wild oats plant response rating (wild oat; [4]): 0
Wild oats plant response rating (wild oat; [5]): 0
Plant response rating, Wild oats (wild oat; [6]): 0
Ducksalad plant response rating (duck salad; [8]): 0
Ducksalad plant response rating (duck salad; [9]): 0
Ducksalad plant response rating (duck salad; [10]): 0
Ducksalad plant response rating (duck salad; [11]): 0
Morningglory plant response rating (morningglory; [1]): 0
Morningglory plant response rating (0 to 10 scale) (morningglory; Preemergence, Rate 125 g/ha): 0
Morningglory plant response rating (morningglory; [2]): 0
Morningglory plant response rating (morningglory; [3]): 0
Morningglory plant response rating (morningglory; [4]): 3
Morningglory plant response rating (morningglory; [5]): 3
Plant response rating, Morningglory (morningglory; [6]): 3
Nutsedge plant response rating (purple nutsedge; [1]): 0
Nutsedge plant response rating (0 to 10 scale) (purple nutsedge; Preemergence, Rate 125 g/ha): 0
Nutsedge plant response rating (purple nutsedge; [2]): 0
Nutsedge plant response rating (purple nutsedge; [3]): 0
Nutsedge plant response rating (purple nutsedge; [4]): 0
Nutsedge plant response rating (purple nutsedge; [5]): 0
Plant response rating, Nutsedge (purple nutsedge; [6]): 0
Soybean plant response rating (soybean; [1]): 0
Soybean plant response rating (0 to 10 scale) (soybean; Preemergence, Rate 125 g/ha): 0
Soybean plant response rating (soybean; [2]): 0
Soybean plant response rating (soybean; [3]): 0
Soybean plant response rating (soybean; [4]): 3
Soybean plant response rating (soybean; [5]): 4
Plant response rating, Soybean (soybean; [6]): 5
Giant foxtail plant response rating (giant foxtail; [1]): 0
Giant foxtail plant response rating (0 to 10 scale) (giant foxtail; Preemergence, Rate 125 g/ha): 4
Giant foxtail plant response rating (giant foxtail; [2]): 6
Giant foxtail plant response rating (giant foxtail; [3]): 6
Giant foxtail plant response rating (giant foxtail; [4]): 0
Giant foxtail plant response rating (giant foxtail; [5]): 0
Plant response rating, Giant foxtail (giant foxtail; [6]): 0
Velvetleaf plant response rating (velvetleaf; [1]): 0
Velvetleaf plant response rating (0 to 10 scale) (velvetleaf; Preemergence, Rate 125 g/ha): 0
Velvetleaf plant response rating (velvetleaf; [2]): 0
Velvetleaf plant response rating (velvetleaf; [3]): 0
Velvetleaf plant response rating (velvetleaf; [4]): 0
Velvetleaf plant response rating (velvetleaf; [5]): 0
Plant response rating, Velvetleaf (velvetleaf; [6]): 0
Bedstraw plant response rating (bedstraw; [1]): 0
Bedstraw plant response rating (0 to 10 scale) (bedstraw; Preemergence, Rate 125 g/ha): 0
Bedstraw plant response rating (bedstraw; [2]): 0
Bedstraw plant response rating (bedstraw; [3]): 0
Bedstraw plant response rating (bedstraw; [4]): 0
Bedstraw plant response rating (bedstraw; [5]): 0
Rice plant response rating (rice; [8]): 0
Rice plant response rating (rice; [9]): 0
Rice plant response rating (rice; [10]): 0
Rice plant response rating (rice; [11]): 0
Crabgrass plant response rating (crabgrass; [1]): 3
Crabgrass plant response rating (0 to 10 scale) (crabgrass; Preemergence, Rate 125 g/ha): 4
Crabgrass plant response rating (crabgrass; [2]): 6
Crabgrass plant response rating (crabgrass; [3]): 8
Crabgrass plant response rating (crabgrass; [4]): 0
Crabgrass plant response rating (crabgrass; [5]): 0
Plant response rating, Crabgrass (crabgrass; [6]): 0
Cocklebur plant response rating (0 to 10 scale) (cocklebur; Preemergence, Rate 125 g/ha): 0
Cocklebur plant response rating (cocklebur; [2]): 0
Cocklebur plant response rating (cocklebur; [3]): 0
Cocklebur plant response rating (cocklebur; [4]): 0
Cocklebur plant response rating (cocklebur; [5]): 0
Plant response rating, Cocklebur (cocklebur; [6]): 0
Cocklebur plant response rating (cocklebur; [7]): 0
